According to ChEMBL document CHEMBL1155858, “Derivatives of (3S)-N-(biphenyl-2-ylmethyl)pyrrolidin-3-amine as selective noradrenaline reuptake inhibitors: Reducing P-gp mediated efflux by modulation of H-bond acceptor capacity” (Bioorg Med Chem Lett, 2008):

Key:
[1] = target: T1, Sodium-dependent dopamine transporter (Homo sapiens, UniProt Q01959); test: Inhibition of [3H]dopamine reuptake at human DAT expressed in HEK293 cells by SPA; format: cell-based
[2] = Metabolic stability in human liver microsomes assessed as intrinsic clearance; format: ADME, Microsome
[3] = target: Sodium-dependent noradrenaline transporter (Homo sapiens, UniProt P23975); test: Inhibition of [3H]nisoxetine reuptake at human NET expressed in HEK293 cells by SPA; format: cell-based
[4] = target: T2, Sodium-dependent serotonin transporter (Homo sapiens, UniProt P31645); test: Inhibition of [3H]citalopram uptake at human 5HTT expressed in HEK293 cells by SPA; format: cell-based
[5] = tested on: Liver microsomes; test: Metabolic stability in human liver microsomes; format: ADME, Microsome
[6] = target: Cytochrome P450 2D6 (Homo sapiens, UniProt P10635); test: Inhibition of CYP2D6; format: ADME
[7] = target: T1, Sodium-dependent dopamine transporter
Description: Inhibition of [3H]dopamine uptake at human DAT expressed in HEK293 cells

[8] = target: CYP2C9 (Homo sapiens, UniProt P11712); test: Inhibition of CYP2C9 at 3 uM; format: ADME
[9] = target: CYP3A4 (Homo sapiens, UniProt P08684); test: Inhibition of CYP3A4 at 3 uM; format: ADME
[10] = target: CYP1A2 (Homo sapiens, UniProt P05177); test: Inhibition of CYP1A2 at 3 uM; format: ADME
[11] = target: T2, Sodium-dependent serotonin transporter
Description: Inhibition of [3H]5HT uptake at human SERT expressed in HEK293 cells

[12] = target: CYP2D6 (Homo sapiens, UniProt P10635); test: Inhibition of CYP2D6 at 3 uM; format: ADME
[13] = Dissociation constant, pKa of the compound; format: physicochemical
[14] = Apparent permeability from apical to basolateral side of the MDCK cells expressing MDR1 gene; format: ADME, cell-based, Canis lupus familiaris; settings: dog
[15] = Ratio of permeability from basolateral to apical side over apical to basolateral side of MDCK cells expressing MDR1 gene; settings: dog
[16] = Apparent permeability from basolateral to apical side of the MDCK cells expressing MDR1 gene; format: ADME, cell-based, Canis lupus familiaris; settings: dog
[17] = target: T3, Cytochrome P450 1A2 (Homo sapiens, UniProt P05177); test: Inhibition of CYP1A2; format: ADME
T3 sequence (P05177 whole entry): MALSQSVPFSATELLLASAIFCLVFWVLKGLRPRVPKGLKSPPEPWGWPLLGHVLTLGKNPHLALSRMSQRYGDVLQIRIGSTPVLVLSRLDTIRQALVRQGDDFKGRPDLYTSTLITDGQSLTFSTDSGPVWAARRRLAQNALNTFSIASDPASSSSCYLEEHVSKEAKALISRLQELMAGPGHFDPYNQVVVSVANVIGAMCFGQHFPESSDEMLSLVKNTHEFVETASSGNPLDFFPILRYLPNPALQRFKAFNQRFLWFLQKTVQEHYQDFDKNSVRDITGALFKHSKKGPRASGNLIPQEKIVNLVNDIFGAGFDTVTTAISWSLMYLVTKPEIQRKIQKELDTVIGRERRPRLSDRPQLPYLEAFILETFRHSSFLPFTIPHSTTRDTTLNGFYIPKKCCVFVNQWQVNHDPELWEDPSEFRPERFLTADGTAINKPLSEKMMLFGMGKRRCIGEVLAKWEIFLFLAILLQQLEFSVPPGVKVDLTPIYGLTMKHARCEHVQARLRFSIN

[18] = species on record: Homo sapiens; test: Selectivity for human NET over human SERT
[19] = species on record: Homo sapiens; test: Selectivity for human NET over human DAT
[20] = tested on: Hepatocyte; test: Metabolic stability in human hepatocytes assessed as intrinsic clearance; format: ADME, cell-based, Liver
[21] = Inhibition of L type calcium channel
[22] = Distribution coefficient, log D at pH 7.4; format: physicochemical; settings: octanol/water
[23] = Inhibition of sodium channel site 2
[24] = target: Voltage-gated inwardly rectifying potassium channel KCNH2 (Homo sapiens, UniProt Q12809); test: Displacement of [3H]dofetilide from human ERG channel
[25] = target: Cytochrome P450 3A4 (Homo sapiens, UniProt P08684); test: Inhibition of CYP3A4; format: ADME
[26] = target: Cytochrome P450 2C9 (Homo sapiens, UniProt P11712); test: Inhibition of CYP2C9; format: ADME
Chain of Cytochrome P450 2C9 (P11712 whole entry): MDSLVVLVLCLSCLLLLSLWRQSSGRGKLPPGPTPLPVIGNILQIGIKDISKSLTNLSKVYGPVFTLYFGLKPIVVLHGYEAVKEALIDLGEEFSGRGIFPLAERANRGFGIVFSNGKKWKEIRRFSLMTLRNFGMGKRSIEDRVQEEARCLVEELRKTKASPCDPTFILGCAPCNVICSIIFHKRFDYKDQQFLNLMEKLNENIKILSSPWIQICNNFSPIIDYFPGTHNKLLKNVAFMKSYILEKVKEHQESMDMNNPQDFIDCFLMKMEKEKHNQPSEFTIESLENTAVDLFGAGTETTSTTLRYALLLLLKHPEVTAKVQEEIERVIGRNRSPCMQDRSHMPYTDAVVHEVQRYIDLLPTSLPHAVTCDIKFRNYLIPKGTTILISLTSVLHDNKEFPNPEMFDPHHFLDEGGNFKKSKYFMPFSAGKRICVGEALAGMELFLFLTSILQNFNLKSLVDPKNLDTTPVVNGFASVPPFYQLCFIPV

Chain of Cytochrome P450 2D6 (P10635 whole entry): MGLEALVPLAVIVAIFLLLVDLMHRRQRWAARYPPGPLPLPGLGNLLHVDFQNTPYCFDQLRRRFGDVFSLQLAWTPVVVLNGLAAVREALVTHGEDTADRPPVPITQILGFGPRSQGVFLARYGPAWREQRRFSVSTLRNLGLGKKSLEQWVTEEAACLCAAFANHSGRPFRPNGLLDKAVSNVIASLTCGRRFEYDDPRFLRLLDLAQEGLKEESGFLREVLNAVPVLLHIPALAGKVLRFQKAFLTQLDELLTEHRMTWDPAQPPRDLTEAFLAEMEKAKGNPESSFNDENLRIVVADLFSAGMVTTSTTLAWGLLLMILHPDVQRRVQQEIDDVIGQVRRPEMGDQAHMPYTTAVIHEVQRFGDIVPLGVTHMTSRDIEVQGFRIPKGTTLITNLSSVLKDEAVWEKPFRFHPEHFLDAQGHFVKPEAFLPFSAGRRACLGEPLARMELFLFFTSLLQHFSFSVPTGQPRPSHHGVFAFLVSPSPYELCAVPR
Chain of Sodium-dependent noradrenaline transporter (P23975 whole entry): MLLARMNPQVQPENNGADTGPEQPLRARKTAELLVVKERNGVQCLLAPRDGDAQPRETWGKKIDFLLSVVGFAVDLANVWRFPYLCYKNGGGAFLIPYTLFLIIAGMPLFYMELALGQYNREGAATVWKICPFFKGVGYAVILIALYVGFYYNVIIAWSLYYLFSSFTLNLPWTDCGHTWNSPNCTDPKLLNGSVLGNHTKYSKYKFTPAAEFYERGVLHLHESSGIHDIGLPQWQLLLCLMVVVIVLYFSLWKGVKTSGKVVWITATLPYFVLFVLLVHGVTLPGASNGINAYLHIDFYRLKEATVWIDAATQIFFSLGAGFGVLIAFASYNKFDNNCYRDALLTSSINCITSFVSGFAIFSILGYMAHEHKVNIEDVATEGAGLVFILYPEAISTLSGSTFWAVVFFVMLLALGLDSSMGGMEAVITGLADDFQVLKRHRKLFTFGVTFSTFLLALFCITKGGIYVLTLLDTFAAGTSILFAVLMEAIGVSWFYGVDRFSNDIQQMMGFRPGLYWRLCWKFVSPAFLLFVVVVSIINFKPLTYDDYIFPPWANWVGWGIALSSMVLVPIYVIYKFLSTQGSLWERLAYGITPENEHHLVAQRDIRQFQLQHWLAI
T2 sequence (P31645 whole entry): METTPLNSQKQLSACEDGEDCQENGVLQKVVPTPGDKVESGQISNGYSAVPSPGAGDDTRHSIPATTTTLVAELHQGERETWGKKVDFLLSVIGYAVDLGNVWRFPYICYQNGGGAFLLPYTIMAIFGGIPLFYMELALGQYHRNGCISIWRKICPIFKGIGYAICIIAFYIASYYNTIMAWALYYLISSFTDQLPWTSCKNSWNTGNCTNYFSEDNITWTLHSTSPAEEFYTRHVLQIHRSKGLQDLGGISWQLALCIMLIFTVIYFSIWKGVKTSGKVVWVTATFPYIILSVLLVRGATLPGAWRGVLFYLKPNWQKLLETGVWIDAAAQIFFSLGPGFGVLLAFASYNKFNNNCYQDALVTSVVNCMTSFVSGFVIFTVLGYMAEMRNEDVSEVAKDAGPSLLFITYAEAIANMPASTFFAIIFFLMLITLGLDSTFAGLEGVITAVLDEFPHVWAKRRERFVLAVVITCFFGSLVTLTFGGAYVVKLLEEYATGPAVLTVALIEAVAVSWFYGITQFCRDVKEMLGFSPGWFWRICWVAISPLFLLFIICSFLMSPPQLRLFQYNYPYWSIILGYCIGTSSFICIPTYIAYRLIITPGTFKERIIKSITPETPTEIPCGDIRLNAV
T1 sequence (Q01959 whole entry): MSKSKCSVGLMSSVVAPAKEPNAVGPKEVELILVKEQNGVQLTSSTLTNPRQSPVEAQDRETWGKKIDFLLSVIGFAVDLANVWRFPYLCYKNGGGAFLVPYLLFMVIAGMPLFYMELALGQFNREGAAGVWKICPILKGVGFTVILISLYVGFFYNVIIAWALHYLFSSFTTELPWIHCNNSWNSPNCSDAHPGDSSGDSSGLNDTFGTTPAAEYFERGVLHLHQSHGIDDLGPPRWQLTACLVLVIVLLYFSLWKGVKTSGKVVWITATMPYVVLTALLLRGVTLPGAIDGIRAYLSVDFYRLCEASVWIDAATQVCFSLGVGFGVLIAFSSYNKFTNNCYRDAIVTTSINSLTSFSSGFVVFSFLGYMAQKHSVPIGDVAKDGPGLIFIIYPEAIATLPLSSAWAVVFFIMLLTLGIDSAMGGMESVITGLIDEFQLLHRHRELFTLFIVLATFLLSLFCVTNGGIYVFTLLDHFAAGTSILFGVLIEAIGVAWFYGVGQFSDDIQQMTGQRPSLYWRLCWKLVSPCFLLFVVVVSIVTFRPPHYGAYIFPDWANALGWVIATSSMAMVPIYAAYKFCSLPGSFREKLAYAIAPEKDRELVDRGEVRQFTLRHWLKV
Chain of Voltage-gated inwardly rectifying potassium channel KCNH2 (Q12809 whole entry): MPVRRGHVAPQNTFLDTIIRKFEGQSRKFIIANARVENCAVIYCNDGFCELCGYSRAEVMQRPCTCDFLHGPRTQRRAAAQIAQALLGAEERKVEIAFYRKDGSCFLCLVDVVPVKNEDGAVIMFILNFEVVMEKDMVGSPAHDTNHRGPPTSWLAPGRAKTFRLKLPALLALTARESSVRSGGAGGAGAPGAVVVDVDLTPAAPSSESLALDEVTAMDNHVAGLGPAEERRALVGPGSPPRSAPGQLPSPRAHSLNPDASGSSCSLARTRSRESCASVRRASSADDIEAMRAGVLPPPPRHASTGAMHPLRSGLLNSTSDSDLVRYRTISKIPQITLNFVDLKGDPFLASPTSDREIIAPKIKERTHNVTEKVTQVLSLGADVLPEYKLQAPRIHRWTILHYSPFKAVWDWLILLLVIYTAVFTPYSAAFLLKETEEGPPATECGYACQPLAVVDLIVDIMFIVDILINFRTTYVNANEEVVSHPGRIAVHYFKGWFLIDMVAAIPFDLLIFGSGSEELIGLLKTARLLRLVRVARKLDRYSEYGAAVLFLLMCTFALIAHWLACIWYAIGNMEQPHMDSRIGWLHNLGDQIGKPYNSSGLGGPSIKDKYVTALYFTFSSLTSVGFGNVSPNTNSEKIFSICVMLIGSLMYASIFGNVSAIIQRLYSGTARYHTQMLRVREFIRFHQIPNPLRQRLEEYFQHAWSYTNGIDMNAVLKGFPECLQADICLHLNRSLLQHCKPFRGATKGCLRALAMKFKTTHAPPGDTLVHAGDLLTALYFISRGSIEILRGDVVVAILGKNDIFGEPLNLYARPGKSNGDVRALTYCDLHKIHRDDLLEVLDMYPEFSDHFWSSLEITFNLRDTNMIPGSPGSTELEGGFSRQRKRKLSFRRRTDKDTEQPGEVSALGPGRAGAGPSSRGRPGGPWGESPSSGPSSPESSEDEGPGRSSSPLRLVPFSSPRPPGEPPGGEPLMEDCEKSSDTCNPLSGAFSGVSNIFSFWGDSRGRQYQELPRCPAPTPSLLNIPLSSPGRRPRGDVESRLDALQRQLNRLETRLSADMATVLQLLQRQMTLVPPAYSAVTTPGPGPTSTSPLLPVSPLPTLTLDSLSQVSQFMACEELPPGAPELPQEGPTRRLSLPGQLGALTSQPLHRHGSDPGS
Chain of CYP2D6 (P10635 whole entry): as the sequence (P10635 whole entry) above
Chain of Cytochrome P450 3A4 (P08684 whole entry): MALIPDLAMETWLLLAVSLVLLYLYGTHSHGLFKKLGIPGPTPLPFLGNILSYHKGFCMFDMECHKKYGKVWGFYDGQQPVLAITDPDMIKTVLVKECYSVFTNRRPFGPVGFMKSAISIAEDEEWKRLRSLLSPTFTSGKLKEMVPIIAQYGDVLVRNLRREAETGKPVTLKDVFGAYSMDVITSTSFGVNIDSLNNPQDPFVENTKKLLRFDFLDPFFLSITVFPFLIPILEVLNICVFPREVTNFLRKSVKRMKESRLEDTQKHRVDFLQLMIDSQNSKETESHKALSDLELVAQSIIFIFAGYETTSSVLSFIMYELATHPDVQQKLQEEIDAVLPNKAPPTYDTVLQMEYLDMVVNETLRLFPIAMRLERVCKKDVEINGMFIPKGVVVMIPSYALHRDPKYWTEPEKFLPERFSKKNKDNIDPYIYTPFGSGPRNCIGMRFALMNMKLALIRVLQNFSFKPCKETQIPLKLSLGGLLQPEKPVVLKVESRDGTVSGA
Chain of CYP3A4 (P08684 whole entry): as above

CSc1ccccc1CN([C@H]1CCNC1)S(C)(=O)=O
Ki [1]: 2950 nM
microsomal CLint [2]: < 7 µL/min/mg
Ki [3]: 86 nM
Ki [4]: 1250 nM

c1ccc(-c2ccccc2CN(C2CCOCC2)[C@H]2CCNC2)cc1
t1/2 [5]: > 2 h

CCOC(=O)N(Cc1ccccc1Oc1ccccc1)[C@H]1CCNC1
Ki [1]: 1900 nM
microsomal CLint [2]: 21 µL/min/mg
IC50 [6]: 420 nM
Ki [3]: 23 nM
Ki [4]: 444 nM

CCS(=O)(=O)N(Cc1ccccc1-c1ccccc1)[C@H]1CCN(C)C1
Ki [3]: 466 nM
Ki [4]: > 10000 nM

CC(C)C(=O)N(Cc1cccc(Cl)c1Cl)[C@H]1CCNC1
IC50 [7]: 1250 nM
inhibition at 3 µM [8]: < 40%
inhibition at 3 µM [9]: < 40%
t1/2 [5]: > 2 h
inhibition at 3 µM [10]: < 40%
IC50 [6]: > 3000 nM
IC50 [11]: 12 nM
inhibition at 3 µM [12]: < 10%

CCOC(=O)N(Cc1ccccc1C(C)C)[C@H]1CCNC1
Ki [1]: 3340 nM
Ki [3]: 49 nM
Ki [4]: 764 nM

CS(=O)(=O)N(Cc1ccccc1-c1ccccc1)[C@H]1CCNC1
pKa [13]: 8.9
Papp A→B [14]: 10 ×10⁻⁶ cm/s
efflux ratio [15]: 5.1
Ki [1]: 2670 nM
Papp B→A [16]: 51 ×10⁻⁶ cm/s
microsomal CLint [2]: 7 µL/min/mg
IC50 [17]: > 3000 nM
Ratio Ki [18]: > 100
Ratio Ki [19]: > 100
CL [20]: < 5 µL/min/mg
IC50 [6]: 3100 nM
Ki [21]: 1900 nM
logD [22]: 0.6
Ki [23]: 1900 nM
Ki [3]: 5 nM
Ki [24]: > 2700 nM
IC50 [25]: > 3000 nM
IC50 [26]: > 3000 nM
Ki [4]: 4120 nM

CC(C)S(=O)(=O)N(Cc1ccccc1-c1ccccc1)[C@H]1CCNC1
Ki [1]: 2700 nM
microsomal CLint [2]: 20 µL/min/mg
IC50 [6]: 350 nM
Ki [3]: 10 nM
Ki [4]: 4690 nM

CS(=O)(=O)N(Cc1ccccc1C(F)(F)F)[C@H]1CCNC1
Ki [1]: 2890 nM
Ki [3]: 86 nM
Ki [4]: 2890 nM

CN(C)C(=O)N(Cc1ccccc1-c1ccccc1)[C@H]1CCNC1
Ki [1]: 2970 nM
Ki [3]: 53 nM
Ki [4]: 5010 nM

CS(=O)(=O)N(Cc1ccccc1-c1ccccc1)[C@@H]1CCNC1
Ki [1]: 2390 nM
microsomal CLint [2]: < 7 µL/min/mg
IC50 [6]: 5360 nM
Ki [3]: 29 nM
Ki [4]: 5350 nM

CCCC(=O)N(Cc1ccccc1-c1ccccc1)[C@H]1CCNC1
Ki [1]: 2610 nM
microsomal CLint [2]: < 7 µL/min/mg
Ki [3]: 25 nM
Ki [4]: 730 nM

COC(=O)N(Cc1ccccc1-c1ccccc1)[C@H]1CCNC1
Ki [1]: 3190 nM
microsomal CLint [2]: < 7 µL/min/mg
IC50 [6]: 10600 nM
Ki [3]: 18 nM
Ki [4]: 4440 nM

CC(=O)N(Cc1ccccc1-c1ccccc1)[C@H]1CCNC1
microsomal CLint [2]: < 7 µL/min/mg
Ki [3]: 124 nM
Ki [4]: 5810 nM

CC(C)C(=O)N(Cc1ccccc1C(F)(F)F)[C@H]1CCNC1
microsomal CLint [2]: < 7 µL/min/mg
Ki [3]: 63 nM
Ki [4]: 133 nM

CC(C)OC(=O)N(Cc1ccccc1-c1ccccc1)[C@H]1CCNC1
Ki [1]: 2010 nM
Ki [3]: 14 nM
Ki [4]: 787 nM

CN1CC[C@H](N(Cc2ccccc2-c2ccccc2)S(C)(=O)=O)C1
Ki [3]: 748 nM
Ki [4]: > 10000 nM

CSc1ccccc1CN(C(=O)C(C)C)[C@H]1CCNC1
Ki [1]: 1380 nM
Ki [3]: 65 nM
Ki [4]: 50 nM
